Read-outs that look alike come from different tables or passages of the source.
Key:
[1] = system: Moloney Murine Leukemia Virus; test: Antiviral screening against Moloney Murine Leukemia Virus (MuLV) by XC-Assay; assay type: cell-based; settings: read-out: ID50 (Moloney Murine Leukemia Virus)
From the text: Biological Activity Assay Procedure for Antiviral Screening Against Moloney Murine Leukemia Virus (MuLV) by XC-Assay
The XC assay system is an indirect method for quantitation of murine-leukemia virus (MuLV) originally described by V. Klement et al, Proc. Natl. Acad. Sci., 63, 753, (1969) and modified by W. Rowe et al, Virology, 42, 1136, (1970). This test is based on the development of syncytial changes in the XC cell line when it is co-cultivated with mouse fibroblast cells (SC-1 cells) productively infected with MuLV. The XC cell line was derived from a rat tumor induced by the prague strain of Rouse Sarcoma Virus (RSV) (J. Svoboda et al, Folia Biol., 9, 77, (1963)).
1E5 SC-1 cells were seeded, in Earls Minimum Essential Medium (EMEM)-10% Fetal Bovine Serum (FBS), onto 60 mm petri dishes. The following day, the cells were inoculated with 0.5 ml of a virus dilution containing 25 μg/ml of DEAE-dextran. The dishes were maintained for 1 hour at 37° C. in a humidified 5% CO2 incubator. The virus inoculum was then removed and replaced with 5 ml of medium containing appropriate concentration of the test compound (two dishes/concentration). Medium containing 5% FBS was added to the virus control dishes. The medium (with or without the test compound) was changed at 48 hours.
Five days after virus inoculation, the culture fluid was decanted and the cells were irradiated with a GE germicidal bulb for 30 seconds (1500-1800 ergs UV-light). Cultures were immediately overlaid with 2E5 XC cells in 5 ml of EMEM-10% FBS/dish. The medium was changed at 2 day intervals. Four days after XC cell addition, cultures were simultaneously fixed and stained with GEIMSA for 10 to 15 minutes.
Plaques were counted using an inverted microscopy as holes in the cell sheet containing syncytial cells, or as focal masses of multinucleated giant cells.
Calculation of % Inhibition/Concentration: [formula] ID50: Accumulative % Inhibition using Reed-Muench Method

[2] = system: HTLV-III/LAV/AAV; test: Antiviral activity against HTLV-III/LAV/AAV; assay type: cell-based; settings: Human immunodeficiency virus 1; read-out: ID50 HTLV-III/LAV/AAV
[3] = system: HTLV III/LAV; settings: in vitro; Mitsuya et al. 1985; cited from earlier work
[4] = SC1, XC-assay, SC-1 mouse fibroblast cells co-cultivated with XC cells, Reed-Muench Method

Compound	IC50 [1, 4] [nM]	IC50 [2] [nM]	HTLV III/LAV replication [3]	cytopathic effects of HTLV III/LAV [3]	IC50 ([1]; SC1, Fibroblast) [nM]
[N-]=[N+]=N[C@H]1C[C@H](n2cc(Br)c(=O)[nH]c2=O)O[C@@H]1CO [3'-N3 --BUdR, 3'-azido-2',3'-dideoxy-5-bromouridine]	1500	2300	–	–	–
[N-]=[N+]=N[C@H]1C[C@H](n2cc(I)c(=O)[nH]c2=O)O[C@@H]1CO [3'-N3 --IUdR, 3'-azido-2',3'-dideoxy-5-iodouridine]	3000	–	–	–	–
Cc1cn([C@H]2C[C@H](N=[N+]=[N-])[C@@H](CO)O2)c(=O)[nH]c1=O [3'-azido-3'-deoxythymidine]	–	230	inhibit HTLV III/LAV replication	block the cytopathic effects	23

From patent publication US4710492A, “3'-azido-2',3'-dideoxy-5-halouridine and its use in treating patients infected with retroviruses” (Yale University, priority 1986, dated 1987)
